According to patent US20210337789A1, “Derivatives of m-Guaiacol, Their Preparation and Their Uses” (Universite de Caen Normandie, priority 2018, published 2021):

Tests used:
Klebsiella pneumoniae = experiment: Bacterial growth screening on wild-type phenotype strain, K. pneumoniae; format: cell-based
Description: (§1) The bacterial growth is evaluated by measuring the optical density (DO) at 600 nm using NanoDrop.
(§2) This ratio permits a classification of the molecules in 4 effect levels: • 0=no effect observed; • 1=effect observed only when the molecule is tested pure; • 2=effect observed at several concentrations, but which gradually decreases the dilutions; • 3=strong effect observed at each concentration of molecule tested.
(§3) A screening of molecules of the invention on several wild-type phenotype strains has been carried out.
(§4) The strains initially selected are: • Gram+: Streptococcus equi subsp zooepidemicus and Staphylococcus aureus • Gram−: Escherichia coli, Klebsiella pneumoniae and Stenotrophomonas maltophila.

[1] = tested on: Micrococcus luteus reference strain; experiment: Bacterial growth (optical density at 600 nm) on Micrococcus luteus reference strain; format: cell-based; design: key: 0 = no effect, 1 = pure only, 2 = several concentrations, 3 = strong at all; conditions: in DMSO diluted in PBS, compared with triclosan
Description: as §1, §2
The molecules are put in a solution in DMSO and diluted in PBS.

Staphylococcus aureus = experiment: Bacterial growth screening on wild-type phenotype strain, S. aureus; format: cell-based
Description: as §1, §2, §3, §4

[2] = tested on: E. coli strains presenting high levels of resistance; experiment: Bacterial growth on E. coli strains presenting high levels of resistance; format: cell-based, Escherichia coli; design: key to Effects (0 < 1 < 2 < 3): 0 = no effect; 1 = pure only; 2 = several concs; 3 = strong at each; key to Δ DO: change in optical density measured at 600 nm; conditions: for Effects (0 < 1 < 2 < 3): molecules at 1, 0.5 and 0.1 mg/ml, triclosan at 0.1 mg/ml
Description: as §1, §2
(§5) Compounds of the invention were tested on 4 strains of E. coli, 3 strains of K. pneumoniae and 4 strains of S. aureus with the resistance profiles below.

[3] = tested on: Streptococcus equi subsp zooepidemicus; experiment: Bacterial growth screening on wild-type phenotype strain, S. zooepidemicus; format: cell-based
Description: as §1, §2, §3, §4

Escherichia coli = experiment: Bacterial growth screening on wild-type phenotype strain, E. coli; format: cell-based
Description: as §1, §2, §3, §4

[4] = tested on: Stenotrophomonas maltophila; experiment: Bacterial growth screening on wild-type phenotype strain, S. maltophila; format: cell-based
Description: as §1, §2, §3, §4

[5] = tested on: KB cells (epidermoid carcinoma); experiment: In vitro cytotoxicity, cell proliferation test (MTS) on KB cells; format: cell-based; conditions: Homo sapiens, KB cells, triplicate, 72 hours of exposure, with respect to DMSO control, read-out: percentage of inhibition of cell growth
Description: The human cell strain KB (epidermoid carcinoma) was obtained from the NCI (National Cancer Institute) and cultivated in the D-MEM medium added with 10% of foetal bovine serum (Invitrogen) in the presence of penicillin, streptomycin and fungizone in flasks of […] under CO2 at 5%. The cells were deposited on tissue culture microplates with 96 wells and a density of 650 cells/well in 200 μl of medium and treated 24 hours later with compounds of the invention dissolved in DMSO at concentrations going from 0.5 nM to 10 μM using a Biomek 3000 (Beckman-Coulter) automaton. The controls received the same volume of DMSO (1% of final volume). After 72 hours of exposure, the MTS reagent (Celltiter 96Aqueous One solution, Promega) was added and incubated for 3 hours at 37° C.: the absorbance was measured at 490 nm and the results of inhibition of the cell proliferation were calculated according to the ratio [(1−(OD490treated/OD490control))×100].
Results: Cytotoxicity at 10^−5 and 10^−6M on Triplicate KB Cells, Measured after 72 Hours of Exposure.
The percentage of inhibition of cell growth with respect to the cells receiving the same quantity of DMSO is outlined in the table below.

[6] = tested on: S. aureus strains presenting high levels of resistance; experiment: Bacterial growth on S. aureus strains presenting high levels of resistance; format: cell-based, Staphylococcus aureus; design: key to Effects (0 < 1 < 2 < 3): 0 = no effect; 1 = pure only; 2 = several concs; 3 = strong at each; key to Δ DO: change in optical density measured at 600 nm; conditions: for Effects (0 < 1 < 2 < 3): molecules at 1, 0.5 and 0.1 mg/ml, triclosan at 0.1 mg/ml
Description: as §1, §2, §5

[7] = tested on: K. pneumoniae strains presenting high levels of resistance; experiment: Bacterial growth on K. pneumoniae strains presenting high levels of resistance; format: cell-based, Klebsiella pneumoniae; design: key to Effects (0 < 1 < 2 < 3): 0 = no effect; 1 = pure only; 2 = several concs; 3 = strong at each; key to Δ DO: change in optical density measured at 600 nm; conditions: for Effects (0 < 1 < 2 < 3): molecules at 1, 0.5 and 0.1 mg/ml, triclosan at 0.1 mg/ml
Description: as §1, §2, §5

COc1cc(O)c(Cl)c(Br)c1Cl [sr7616]
Effect level, K. pneumoniae (Klebsiella pneumoniae): 3
Effect level [1]: 3
Effect level, S. aureus (Staphylococcus aureus): 2
Δ DO ([2]; E. coli Strain 1, 0.1 mg/ml): 0.089
Δ DO ([2]; E. coli Strain 1, 0.5 mg/ml): 0.640
Δ DO ([2]; E. coli Strain 1, 1 mg/ml): 0.857
Effects (0 < 1 < 2 < 3) ([2]; E. coli Strain 1): 2
Δ DO ([2]; E. coli Strain 2, 0.1 mg/ml): 0.331
Δ DO ([2]; E. coli Strain 2, 0.5 mg/ml): 0.854
Δ DO ([2]; E. coli Strain 2, 1 mg/ml): 1.069
Effects (0 < 1 < 2 < 3) ([2]; E. coli Strain 2): 3
Δ DO ([2]; E. coli Strain 3, 0.1 mg/ml): 0.141
Δ DO ([2]; E. coli Strain 3, 0.5 mg/ml): 0.679
Δ DO ([2]; E. coli Strain 3, 1 mg/ml): 0.825
Effects (0 < 1 < 2 < 3) ([2]; E. coli Strain 3): 3
Δ DO ([2]; E. coli Strain 4, 0.1 mg/ml): 0.308
Δ DO ([2]; E. coli Strain 4, 0.5 mg/ml): 0.868
Δ DO ([2]; E. coli Strain 4, 1 mg/ml): 0.853
Effects (0 < 1 < 2 < 3) ([2]; E. coli Strain 4): 3
Effect level, S. zooepidemicus [3]: 3
Effect level, E. coli (Escherichia coli): 3
Effect level, S. maltophila [4]: 2
inhibition at 10 µM ([5]; 10^−5 M): 0%
inhibition at 1 µM ([5]; 10^−6 M): 0%
Δ DO ([6]; S. aureus Strain 1, 0.1 mg/ml): 0.276
Δ DO ([6]; S. aureus Strain 1, 0.5 mg/ml): 0.443
Δ DO ([6]; S. aureus Strain 1, 1 mg/ml): 0.445
Effects (0 < 1 < 2 < 3) ([6]; S. aureus Strain 1): 3
Δ DO ([6]; S. aureus Strain 2, 0.1 mg/ml): 0.303
Δ DO ([6]; S. aureus Strain 2, 0.5 mg/ml): 0.458
Δ DO ([6]; S. aureus Strain 2, 1 mg/ml): 0.459
Effects (0 < 1 < 2 < 3) ([6]; S. aureus Strain 2): 3
Δ DO ([6]; S. aureus Strain 3, 0.1 mg/ml): 0.299
Δ DO ([6]; S. aureus Strain 3, 0.5 mg/ml): 0.529
Δ DO ([6]; S. aureus Strain 3, 1 mg/ml): 0.525
Effects (0 < 1 < 2 < 3) ([6]; S. aureus Strain 3): 3
Δ DO ([6]; S. aureus Strain 4, 0.1 mg/ml): 0.291
Δ DO ([6]; S. aureus Strain 4, 0.5 mg/ml): 0.491
Δ DO ([6]; S. aureus Strain 4, 1 mg/ml): 0.491
Effects (0 < 1 < 2 < 3) ([6]; S. aureus Strain 4): 3
Δ DO ([7]; K. pneumoniae Strain 1, 0.1 mg/ml): 0.236
Δ DO ([7]; K. pneumoniae Strain 1, 0.5 mg/ml): 0.594
Δ DO ([7]; K. pneumoniae Strain 1, 1 mg/ml): 0.646
Effects (0 < 1 < 2 < 3) ([7]; K. pneumoniae Strain 1): 3
Δ DO ([7]; K. pneumoniae Strain 2, 0.1 mg/ml): 0.151
Δ DO ([7]; K. pneumoniae Strain 2, 0.5 mg/ml): 0.641
Δ DO ([7]; K. pneumoniae Strain 2, 1 mg/ml): 0.686
Effects (0 < 1 < 2 < 3) ([7]; K. pneumoniae Strain 2): 2
Δ DO ([7]; K. pneumoniae Strain 3, 0.1 mg/ml): 0.213
Δ DO ([7]; K. pneumoniae Strain 3, 0.5 mg/ml): 0.652
Δ DO ([7]; K. pneumoniae Strain 3, 1 mg/ml): 0.847
Effects (0 < 1 < 2 < 3) ([7]; K. pneumoniae Strain 3): 2
